Values after ≈ are worked out from the molar mass of the structure shown.
Test system: Enterococcus faecalis ATCC 51299 (vanA-positive; vancomycin-resistant)
Test: In vitro antibacterial activity, MIC (UCL), VRE
Format: cell-based
Settings: read-out: VRE MIC (UCL)
Protocol: Staphylococcus aureus NCTC 13373 (mecA-positive; methicillin-resistant, NCTC 13373) was supplied by the National Collection of Type Cultures (NCTC), Public Health England, United Kingdom. Other organisms, S. aureus ATCC 25923 (methicillin-susceptible) and Enterococcus faecalis ATCC 51299 (vanA-positive; vancomycin-resistant), were obtained from the American Type Culture Collection (ATCC) via LGC Standards, UK. A suspension of each organism was prepared from an overnight plate culture (tryptone soya agar) in phosphate-buffered saline (PBS) and adjusted to an absorbance reading at 600 nm of 0.1, which is approximately equivalent to 1 × 10^8 colony-forming units (CFU) per mL. The cultures were further diluted 1:100 in isosensitest broth (Oxoid, United Kingdom) before 100 μL was used to inoculate each well of a 96-well plate that contained diluted samples of the OSA series. Compounds were evaluated over a 2-fold dilution range from 32 to 0.03 μg/mL. Stocks of the samples were prepared in 100% DMSO at […] before being diluted in isosenstitest broth. The highest concentration of DMSO present was 2%, which has been previously shown not to inhibit the growth of the microorganisms (data not shown). […] Vancomycin was used as a quality control compound.

| MIC [µg/mL] | SMILES |
| --- | --- |
| 32 (≈ 116 µM) | Cc1cccc(-c2c(-c3ccccn3)nc3n2CCC3)c1 [OSA_000976] |

Test system: S. aureus ATCC 25923 (methicillin-susceptible)
Test: In vitro antibacterial activity, MIC (UCL), MSSA
Format: cell-based, Staphylococcus aureus
Settings: Staphylococcus aureus; UCL assay; read-out: MSSA MIC (ug/mL) (UCL)
Summary of the method: (§1)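 Two-fold dilution MIC testing, 32–0.03 μg/mL, isosensitest broth medium. Cultures standardized by absorbance at 600 nm (0.1, ~1 × 10^8 CFU/mL) before 1:100 dilution; vancomycin included for quality control.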

| MIC [µg/mL] | SMILES |
| --- | --- |
| > 32 | CC(=O)N(c1ccc(F)cc1)c1c(-c2ccccn2)nc2ccccn12 [OSA_001021] |
| 8 (≈ 23.9 µM) | COc1ccc(-c2nc3ccccn3c2Nc2ccc(F)cc2)nc1 [OSA_001022] |

Same assay, conditions: Staphylococcus aureus; read-out: MSSA MIC (UCL)

| MIC [µg/mL] | SMILES |
| --- | --- |
| 16 (≈ 49.8 µM) | [2H]C([2H])([2H])N(c1ccc(F)cc1)c1c(-c2ccccn2)nc2ccccn12 [OSA_001002] |
| 8 (≈ 23 µM) | COc1ccnc(-c2nc3ccccn3c2N(C)c2ccc(F)cc2)c1 [OSA_001007] |

Test system: PMM (primary mouse macrophages)
Test: Toxicity against PMM
Format: cell-based
Settings: PMM
Protocol: (§2) ADME and toxicity for compounds were measured according to procedures outlined in the manuscript submitted in parallel to this one;2 other procedures were used for those compounds analysed by Monash University (in vitro ADME) or UCL (toxicity), both described in the main

| SMILES | PMM TC50 [µM] |
| --- | --- |
| CC(=O)N(c1ccc(F)cc1)c1c(-c2ccccn2)nc2ccccn12 [OSA_001021] | 64 |

Test system: Staphylococcus aureus NCTC 13373 (mecA-positive; methicillin-resistant)
Test: In vitro antibacterial activity, MIC (UCL School of Pharmacy assay), MRSA
Format: cell-based
Settings: Staphylococcus aureus, UCL; read-out: MRSA MIC (UCL)
Summary of the method: as §1

| MIC [µg/mL] | SMILES |
| --- | --- |
| 8 (≈ 21.8 µM) | c1ccc(-c2nc3n(c2-c2ccc4sc5ccccc5c4c2)CCC3)nc1 [OSA_000831] |
| 32 (≈ 96.3 µM) | Cc1nc2cc(-c3c(-c4ccccn4)nc4n3CCC4)ccc2s1 [OSA_000836] |
| 8 (≈ 29.1 µM) | Cc1cccc(-c2c(-c3ccccn3)nc3n2CCC3)c1 [OSA_000976] |
| 16 (≈ 49.8 µM) | [2H]C([2H])([2H])N(c1ccc(F)cc1)c1c(-c2ccccn2)nc2ccccn12 [OSA_001002] |
| 8 (≈ 23 µM) | COc1ccnc(-c2nc3ccccn3c2N(C)c2ccc(F)cc2)c1 [OSA_001007] |

Same assay, conditions: Staphylococcus aureus; UCL assay; read-out: MRSA MIC (ug/mL) (UCL)

| MIC [µg/mL] | SMILES |
| --- | --- |
| > 32 | CC(=O)N(c1ccc(F)cc1)c1c(-c2ccccn2)nc2ccccn12 [OSA_001021] |
| 8 (≈ 23.9 µM) | COc1ccc(-c2nc3ccccn3c2Nc2ccc(F)cc2)nc1 [OSA_001022] |

Test system: not listed separately
Test: Human plasma protein binding (PPB)
Format: in vitro ADME
Settings: human, plasma, human plasma, NEU; read-out: Human PPB (%) (NEU) (converted)
Description: (§3) To guide our initial SAR exploration work, we obtained liver microsomal intrinsic clearance data for 5 of the 18 compounds assayed by CO-ADD (Supporting Information - CDCO Report and Supporting Information - Biology). We then acquired intrinsic clearance (CLint), plasma protein binding (PPB), and solubility data on further compounds throughout the SAR campaign (Supporting Information - Biology, Tables S3 and S4).
(§4) Table S4. ADME and Pharmacokinetics: compounds only appearing in the Supplementary […]
(§5) MRSA Aqueous HLM CLint Rat Hep CLint
(§6) Cmpd MIC Solubility Human PPB (%) (µL/min/mg (µL/min/10x6 LogD7.4
(§7) (µg/mL) (µM) protein) cells)
as §2

| fraction unbound | SMILES |
| --- | --- |
| 0.17 | CC(=O)N(c1ccc(F)cc1)c1c(-c2ccccn2)nc2ccccn12 [OSA_001021] |

Same assay, conditions: human, plasma, human plasma, NEU; read-out: Human PPB (NEU) (converted)

| fraction unbound | SMILES |
| --- | --- |
| 0.0008 | c1ccc(-c2nc3n(c2-c2ccc4sc5ccccc5c4c2)CCC3)nc1 [OSA_000831] |
| 0.098 | Cc1nc2cc(-c3c(-c4ccccn4)nc4n3CCC4)ccc2s1 [OSA_000836] |
| 0.061 | Cc1cccc(-c2c(-c3ccccn3)nc3n2CCC3)c1 [OSA_000976] |
| 0.025 | COc1ccnc(-c2nc3ccccn3c2N(C)c2ccc(F)cc2)c1 [OSA_001007] |

Test system: not listed separately
Test: Human liver microsome intrinsic clearance
Format: in vitro ADME
Settings: human liver microsomes, NEU
Description: as §3, §4, §5, §6, §7, §2

| HLM CLint (NEU) [uL/min/mg protein] | HLM CLint (uL/min/mg protein) (NEU) | SMILES |
| --- | --- | --- |
| 42.6 | – | c1ccc(-c2nc3n(c2-c2ccc4sc5ccccc5c4c2)CCC3)nc1 [OSA_000831] |
| 34.1 | – | Cc1nc2cc(-c3c(-c4ccccn4)nc4n3CCC4)ccc2s1 [OSA_000836] |
| 76.1 | – | Cc1cccc(-c2c(-c3ccccn3)nc3n2CCC3)c1 [OSA_000976] |
| – | 19.8 | CC(=O)N(c1ccc(F)cc1)c1c(-c2ccccn2)nc2ccccn12 [OSA_001021] |

Same assay, conditions: human liver microsomes, NEU; read-out: HLM CLint (NEU)

| microsomal CLint [µL/min/mg] | SMILES |
| --- | --- |
| 214 | COc1ccnc(-c2nc3ccccn3c2N(C)c2ccc(F)cc2)c1 [OSA_001007] |

Test system: MRC-5SV2 (human lung fibroblast cell line)
Test: Toxicity against MRC-5SV2
Format: cell-based
Settings: MRC5 cells
Protocol: as §2

| SMILES | MRC5 TC50 [µM] |
| --- | --- |
| CC(=O)N(c1ccc(F)cc1)c1c(-c2ccccn2)nc2ccccn12 [OSA_001021] | 64 |

Test system: not listed separately
Test: Rat hepatocyte intrinsic clearance
Format: in vitro ADME
Settings: rat hepatocytes, NEU
Description: as §3, §4, §5, §6, §7, §2

| Rat Hep CLint (NEU) [uL/min/10x6 cells] | Rat Hep CLint (uL/min/10x6 cells) (NEU) | SMILES |
| --- | --- | --- |
| 151 | – | c1ccc(-c2nc3n(c2-c2ccc4sc5ccccc5c4c2)CCC3)nc1 [OSA_000831] |
| 49.1 | – | Cc1nc2cc(-c3c(-c4ccccn4)nc4n3CCC4)ccc2s1 [OSA_000836] |
| 62.5 | – | Cc1cccc(-c2c(-c3ccccn3)nc3n2CCC3)c1 [OSA_000976] |
| – | 81.2 | CC(=O)N(c1ccc(F)cc1)c1c(-c2ccccn2)nc2ccccn12 [OSA_001021] |

Same assay, conditions: rat hepatocytes, NEU; read-out: Rat Hep CLint (NEU)

| hepatocyte CLint [µL/min/1e6 cells] | SMILES |
| --- | --- |
| > 300 | COc1ccnc(-c2nc3ccccn3c2N(C)c2ccc(F)cc2)c1 [OSA_001007] |

Test system: not listed separately
Test: Aqueous solubility
Format: physicochemical
Settings: thermodynamic from solid; NEU; read-out: Aqueous Solubility (NEU)
Description: as §3, with “S4). […] The more polar compounds (lower LogD) had reduced PPB and were more metabolically stable.” for “S4).”
as §4, §5, §6, §7, §2

| solubility [µM] | SMILES |
| --- | --- |
| 3 (≈ 1.1 µg/mL) | c1ccc(-c2nc3n(c2-c2ccc4sc5ccccc5c4c2)CCC3)nc1 [OSA_000831] |
| 10 (≈ 3.32 µg/mL) | Cc1nc2cc(-c3c(-c4ccccn4)nc4n3CCC4)ccc2s1 [OSA_000836] |
| 556 (≈ 153 µg/mL) | Cc1cccc(-c2c(-c3ccccn3)nc3n2CCC3)c1 [OSA_000976] |
| 116 (≈ 37.3 µg/mL) | [2H]C([2H])([2H])N(c1ccc(F)cc1)c1c(-c2ccccn2)nc2ccccn12 [OSA_001002] |
| 26 (≈ 9.06 µg/mL) | COc1ccnc(-c2nc3ccccn3c2N(C)c2ccc(F)cc2)c1 [OSA_001007] |

Same assay, conditions: thermodynamic from solid; NEU; read-out: Aqueous Solubility (uM) (NEU)

| solubility [µM] | SMILES |
| --- | --- |
| 10 (≈ 3.46 µg/mL) | CC(=O)N(c1ccc(F)cc1)c1c(-c2ccccn2)nc2ccccn12 [OSA_001021] |
| 3 (≈ 1 µg/mL) | COc1ccc(-c2nc3ccccn3c2Nc2ccc(F)cc2)nc1 [OSA_001022] |

From paper PMC10714399, “Open Source Antibiotics: Simple Diarylimidazoles Are Potent against Methicillin-Resistant Staphylococcus aureus” (ACS Infectious Diseases, 2023)
